Test results: ChEMBL document CHEMBL5661943, “ASAP - In vitro antiviral effect” (2024)

Assays:
[1] = tested on: Zika virus; assay: EC50 is reported via analysis of immunofluorescence staining. The assay has been performed by Icahn School of Medicine at Mount Sinai.; type: functional, organism-based, Chlorocebus sabaeus, VeroE6/TMPRSS2; conditions: for EC90: P-gp concentration 2 uM, P-gp inhibitor Elacidar
[2] = tested on: dengue virus type 2; assay: Functional immunofluorescence assay to measure dose dependent changes in antiviral-drug inhibitory efficacy against Dengue virus type 2 Thailand/16681/84 in Vero E6/TMPRSS2 cells (cotreated with P-gp inhibitor, Elacridar). Cells are treated with antiviral candidates that are serially diluted, following infection, cells are fixed. EC50 is reported via analysis of immunofluorescence staining. The assay has been performed by Icahn School of Medicine at Mount Sinai.; type: organism-based, Chlorocebus sabaeus, VeroE6/TMPRSS2
[3] = tested on: Zika virus; assay: Functional CPE-based assay to measure dose dependent changes in antiviral-drug inhibitory efficacy against Zika virus MR766 in Vero E6 miRFP670 cells. Cells are treated with antiviral candidates that are serially diluted. EC50 is reported via analysis of MTS assay as a readout of CPE. The assay has been performed by KU Leuven.; type: organism-based, Chlorocebus sabaeus, Vero C1008; conditions: Zika virus; for EC50: Vero C1008
[4] = tested on: dengue virus type 2; assay: Functional assay to measure dose dependent changes in antiviral-drug inhibitory efficacy against Dengue virus type 2 New Guinea C in Vero E6 miRFP670 cells (cotreated with P-gp inhibitor, CP100356). Cells are treated with antiviral candidates that are serially diluted, following infection, cells are fixed. EC50 is reported via analysis of fluorescence intensity using high-content imager. The …; type: organism-based, Chlorocebus sabaeus, Vero C1008; conditions: Dengue virus

SMILES	EC50 ([1]; Zika virus, VeroE6/TMPRSS2) [µM]	EC50 ([2]; Dengue virus, VeroE6/TMPRSS2) [µM]	EC90 ([2]; Dengue virus, VeroE6/TMPRSS2) [µM]	EC50 [3] [µM]	EC50 ([4]; Vero C1008) [µM]	also measured
Clc1ccc2[nH]cc(Cc3ccc(-c4nn[nH]n4)cc3)c2c1	39.4	24.6	34	> 50	> 50	EC90 ([1]; Zika virus, VeroE6/TMPRSS2, Baseline response 0 %, Hill slope -2.483, Maximum measured 171.794 %, Maximum response 100 %, Minimum measured 35.965 %, R squared 0.343): > 50 µM; EC90 ([3]; Vero C1008, Maximum measured 1.604 %, Minimum measured -1.05 %): > 50 µM; EC90 ([4]; Vero C1008): > 50 µM
O=C(Nc1ccc2c(c1)CNC2)c1cc(Cl)cc(C2CC2)c1	> 5.56	> 50	–	< 0.391	> 12.5	EC90 ([1]; Zika virus, VeroE6/TMPRSS2, Baseline response 0 %, Hill slope -0.303, Maximum measured 133.833 %, Maximum response 100 %, Minimum measured 73.063 %, R squared 0.118): > 5.56 µM; EC90 ([2]; Dengue virus, VeroE6/TMPRSS2, Baseline response 0 %, Hill slope -0.218, Maximum measured 127.968 %, Maximum response 100 %, Minimum measured 35.242 %, P-gp concentration 2 uM, R squared 0.016, P-gp inhibitor Elacidar): > 50 µM; EC90 ([3]; Vero C1008, Baseline response 0 %, Hill slope -0.16, Maximum measured 19.084 %, Maximum response 100 %, Minimum measured -10.525 %, R squared 0.01): < 0.391 µM; EC90 ([4]; Vero C1008, Baseline response 0 %, Hill slope -18.192, Maximum measured 115.18 %, Maximum response 100 %, Minimum measured 61.318 %, P-gp concentration 500 nM, R squared 0.219, P-gp inhibitor CP100356): > 12.5 µM
O=C(Nc1ccc2c(c1)CNCCC2)c1cc(Cl)cc2[nH]ncc12	47.6	26	45	> 50	> 1.56	EC90 ([1]; Zika virus, VeroE6/TMPRSS2, Baseline response 0 %, Hill slope -16.818, Maximum measured 150.619 %, Maximum response 100 %, Minimum measured 30.484 %, R squared 0.241): > 50 µM; EC90 ([3]; Vero C1008, Baseline response 0 %, Hill slope 0.723, Maximum measured 1.937 %, Maximum response 100 %, Minimum measured -1.308 %, R squared 0.05): > 50 µM; EC90 ([3]; Vero C1008, Maximum measured 5.01 %, Minimum measured -5.78 %): > 50 µM; EC90 ([4]; Vero C1008, Baseline response 0 %, Hill slope 9.827, Maximum measured 112.729 %, Maximum response 100 %, Minimum measured 86.907 %, P-gp concentration 500 nM, R squared 0.124, P-gp inhibitor CP100356): > 1.56 µM
O=C(Nc1cc(Cl)cc(C(=O)NCc2ccc(-c3nnn[nH]3)cc2)c1)OCc1ccccc1	> 16.7	24.8	40.9	> 50	> 50	EC90 ([1]; Zika virus, VeroE6/TMPRSS2, Maximum measured 73.474 %, Minimum measured 51.372 %): > 16.7 µM; EC90 ([3]; Vero C1008, Baseline response 0 %, Hill slope 2.99, Maximum measured 29.669 %, Maximum response 100 %, Minimum measured 0.824 %, R squared 0.934): > 50 µM; EC90 ([4]; Vero C1008, Maximum measured 125.704 %, Minimum measured 70.659 %, P-gp concentration 500 nM, P-gp inhibitor CP100356): > 50 µM
CC(C)(C)NC(=O)[C@H](Nc1cccc(-c2nn[nH]n2)c1)c1cc(Cl)cc(NC(=O)OCc2ccccc2)c1	37.4	> 50	–	49.8	50	EC90 ([1]; Zika virus, VeroE6/TMPRSS2, Baseline response 0 %, Hill slope -8.55, Maximum measured 97.768 %, Maximum response 77.157 %, Minimum measured 5.982 %, R squared 0.78): 48.4 µM; EC90 ([2]; Dengue virus, VeroE6/TMPRSS2, Maximum measured 98.938 %, Minimum measured 28.549 %, P-gp concentration 2 uM, P-gp inhibitor Elacidar): > 50 µM; EC90 ([3]; Vero C1008, Baseline response 0 %, Hill slope 4.346, Maximum measured 50.323 %, Maximum response 100 %, Minimum measured -0.582 %, R squared 0.944): > 50 µM; EC90 ([4]; Vero C1008, Baseline response 0 %, Hill slope -29.373, Maximum measured 114.47 %, Maximum response 100 %, Minimum measured 52.367 %, P-gp concentration 500 nM, R squared 0.626, P-gp inhibitor CP100356): > 50 µM
CC(C)c1nc2c(C(=O)Nc3ccc4c(c3)CNC4)cc(Br)cc2[nH]1	> 5.56	> 16.7	–	< 0.391	> 3.12	EC90 ([1]; Zika virus, VeroE6/TMPRSS2, Baseline response 0 %, Hill slope 0.282, Maximum measured 117.995 %, Maximum response 100 %, Minimum measured 67.231 %, R squared 0.042): > 5.56 µM; EC90 ([2]; Dengue virus, VeroE6/TMPRSS2, Maximum measured 259.996 %, Minimum measured 97.005 %, P-gp concentration 2 uM, P-gp inhibitor Elacidar): > 16.7 µM; EC90 ([3]; Vero C1008, Baseline response 0 %, Hill slope -0.56, Maximum measured 41.831 %, Maximum response 100 %, Minimum measured -11.106 %, R squared 0.026): < 0.391 µM; EC90 ([4]; Vero C1008, Maximum measured 127.324 %, Minimum measured 101.275 %, P-gp concentration 500 nM, P-gp inhibitor CP100356): > 3.12 µM
O=C(Nc1cc(Cl)cc(C(=O)Nc2cccc(C3CCNCC3)c2)c1)OCc1ccccc1	3.24	3.24	–	> 50	4.04	EC90 ([1]; Zika virus, VeroE6/TMPRSS2, Maximum measured 120.28 %, Minimum measured 106.347 %): > 1.85 µM; EC90 ([1]; Zika virus, VeroE6/TMPRSS2, Baseline response 0 %, Hill slope -10.935, Maximum measured 129.824 %, Maximum response 100 %, Minimum measured 42.275 %, R squared 0.16): > 3.33 µM; EC50 ([1]; veroe6/tmprss2): > 1.85 µM; EC90 ([2]; Baseline response 0 %, Hill slope -7.018, Maximum measured 136.667 %, Maximum response 100 %, Minimum measured 60.314 %, P-gp concentration 2 uM, R squared 0.441, P-gp inhibitor Elacidar): > 1.85 µM; EC90 ([2]; Dengue virus, VeroE6/TMPRSS2, Baseline response 0 %, Hill slope -0.392, Maximum measured 120.272 %, Maximum response 100 %, Minimum measured 45.482 %, P-gp concentration 2 uM, R squared 0.27, P-gp inhibitor Elacidar): > 3.33 µM; EC50 ([2]; veroe6/tmprss2): > 1.85 µM; EC90 ([3]; Vero C1008, Maximum measured 1.3 %, Minimum measured -10.726 %): > 50 µM; EC90 ([4]; Vero C1008, Baseline response 0 %, EC90 CI (lower) 2.724 uM, EC90 CI (upper) 4.009 uM, Hill slope -10.989, Maximum measured 107.904 %, Maximum response 100 %, Minimum measured 0.838 %, P-gp concentration 500 nM, R squared 0.983, P-gp inhibitor CP100356): 4.93 µM
O=C(NS(=O)(=O)C1CC1)c1cc(Cl)ccc1NS(=O)(=O)c1ccc(Oc2ccccc2Cl)cc1	45.9	42.5	–	> 50	44.5	EC90 ([1]; Zika virus, VeroE6/TMPRSS2, Baseline response 0 %, Hill slope -22.702, Maximum measured 122.036 %, Maximum response 100 %, Minimum measured 12.187 %, R squared 0.505): > 50 µM; EC90 ([2]; Dengue virus, VeroE6/TMPRSS2, Baseline response 0 %, Hill slope -20.818, Maximum measured 101.748 %, Maximum response 70 %, Minimum measured 2.339 %, P-gp concentration 2 uM, R squared 0.5, P-gp inhibitor Elacidar): 47.3 µM; EC90 ([3]; Vero C1008, Baseline response 0 %, Hill slope 1.706, Maximum measured 45.349 %, Maximum response 100 %, Minimum measured -3.564 %, R squared 0.879): > 50 µM; EC90 ([4]; Vero C1008, Baseline response 0 %, Hill slope -56.608, Maximum measured 108.404 %, Maximum response 100 %, Minimum measured 0.137 %, P-gp concentration 500 nM, R squared 0.959, P-gp inhibitor CP100356): 46.3 µM
O=C(O)COc1cccc(NC(=O)c2cc(Cl)cc(NC(=O)OCc3ccccc3)c2)c1	> 50	> 50	–	> 50	> 50	EC90 ([1]; Zika virus, VeroE6/TMPRSS2, Baseline response 0 %, Hill slope 0.101, Maximum measured 106.686 %, Maximum response 100 %, Minimum measured 54.693 %, R squared 0.072): > 50 µM; EC90 ([2]; Dengue virus, VeroE6/TMPRSS2, Maximum measured 97.013 %, Minimum measured 38.667 %, P-gp concentration 2 uM, P-gp inhibitor Elacidar): > 50 µM; EC90 ([3]; Vero C1008, Maximum measured -[…], Minimum measured -2.209 %): > 50 µM; EC90 ([4]; Vero C1008, Maximum measured 107.555 %, Minimum measured 104.836 %, P-gp concentration 500 nM, P-gp inhibitor CP100356): > 50 µM
CCOc1cccc(-c2ccc(S(=O)(=O)Nc3ccc(Cl)cc3C(=O)O)cc2C)c1	2.44	0.175	> 16.7	> 50	22.3	EC90 ([1]; Zika virus, VeroE6/TMPRSS2, Baseline response 0 %, Hill slope -0.481, Maximum measured 136.466 %, Maximum response 100 %, Minimum measured 2.895 %, R squared 0.53): > 50 µM; EC90 ([3]; Vero C1008, Baseline response 0 %, Hill slope -0.317, Maximum measured 5.247 %, Maximum response 100 %, Minimum measured -4.425 %, R squared 0.236): > 50 µM; EC90 ([4]; Vero C1008, Baseline response 0 %, Hill slope -31.955, Maximum measured 106.035 %, Maximum response 100 %, Minimum measured 0.035 %, P-gp concentration 500 nM, R squared 0.9, P-gp inhibitor CP100356): 23.9 µM
COC(=O)c1cc(NC(=O)c2cc(Cl)cc(NC(=O)OCc3ccccc3)c2)cc(-c2nnn[nH]2)c1	> 16.7	39.8	–	> 50	43.1	EC90 ([1]; Zika virus, VeroE6/TMPRSS2, Maximum measured 163.156 %, Minimum measured 112.225 %): > 16.7 µM; EC90 ([2]; Dengue virus, VeroE6/TMPRSS2, Baseline response 0 %, Hill slope -17.631, Maximum measured 314.134 %, Maximum response 266.23 %, Minimum measured 4.599 %, P-gp concentration 2 uM, R squared 0.779, P-gp inhibitor Elacidar): 45 µM; EC90 ([3]; Vero C1008, Maximum measured 4.051 %, Minimum measured -3.87 %): > 50 µM; EC90 ([4]; Vero C1008): 49.4 µM
NCc1cccc(CCc2cc(Cl)cc(NC(=O)OCc3ccccc3)c2)c1	> 50	> 1.85	–	> 50	7.13	EC90 ([1]; Zika virus, VeroE6/TMPRSS2, Maximum measured 110.897 %, Minimum measured 60.854 %): > 50 µM; EC90 ([2]; Dengue virus, VeroE6/TMPRSS2, Maximum measured 240.936 %, Minimum measured 110.203 %, P-gp concentration 2 uM, P-gp inhibitor Elacidar): > 1.85 µM; EC90 ([3]; Vero C1008, Maximum measured 1.168 %, Minimum measured -5.971 %): > 50 µM; EC90 ([4]; Vero C1008, Baseline response 0 %, EC90 CI (lower) 3.921 uM, EC90 CI (upper) 6.549 uM, Hill slope -6.432, Maximum measured 108.307 %, Maximum response 100 %, Minimum measured 4.257 %, P-gp concentration 500 nM, R squared 0.964, P-gp inhibitor CP100356): 10 µM
